How the values were obtained:
Format in all cases: cell-based
[1] = test system: mouse primary astrocytes; test: NO production in mouse primary astrocytes stimulated with LPS + interferon-gamma; settings: LPS 100 ng/ml + interferon-gamma 50 unit/ml, oligonucleotide after 2 hours, FIG. 6
Protocol: (§1) The prepared astrocytes were treated with LPS (100 ng/ml)+interferon-gamma (50 unit/ml) for inflammatory stimulation, and allowed to stand for 2 hours, and then treated with the oligonucleotide (15 bp Oligo25, SEQ ID NO: 11) to confirm the amount of NO produced and the expression amount of cytokines.

[2] = test system: BV2 cells, a mouse microglia cell line; test: Pro-inflammatory cytokine gene expression in BV2 microglia (PCR); settings: LPS 100 ng/ml + interferon-gamma 50 unit/ml, FIG. 5
Protocol: The expression amount of cytokines was confirmed by measuring the expression level of cytokine genes in the BV2 cells using conventional PCR analysis, and the specific method is as follows. Total ribonucleic acid (RNA) was extracted from the treated cells using a TRIZOL reagent (Invitrogen, Carlsbad, Calif., United States). Reverse transcription (RT) was carried out using Superscript II reverse transcriptase (Invitrogen) and oligo (dT) primers. PCR amplification was carried out in a C1000 Touch Thermal Cycler (Bio-Rad, Richmond, Calif., United States) at an annealing temperature of 55-60° C. in 25-32 cycles using specific primer sets. The PCR product having ethidium bromide was electrophoresed on a 1% agarose gel and irradiated with ultraviolet rays to observe bands.

[3] = test system: mouse primary chondrocytes; test: Osteoarthritis marker gene expression in IL-1β-treated mouse primary chondrocytes (real-time PCR); settings: oligonucleotide 10 ng/mL 2 hours, then IL-1β 6 hours, FIG. 8
[4] = test system: mouse primary astrocytes; test: Cytokine gene expression in mouse primary astrocytes (PCR); settings: LPS 100 ng/ml + interferon-gamma 50 unit/ml, FIG. 7
Protocol: as §1
The expression amount of cytokines was confirmed by measuring the expression level of the cytokine genes using the conventional PCR analysis described in Example 5 above, and the concentration of cytokine proteins in the cell culture using Western blotting.

[5] = test system: BV2 cells, a mouse microglia cell line; test: NO production in BV2 microglia stimulated with LPS + interferon-gamma; settings: LPS 100 ng/ml + interferon-gamma 50 unit/ml, oligonucleotide after 2 hours, FIG. 4

“AGG GAG GGA GGG AGG (DNA AGGGAGGGAGGGAGG; listed as DNA, chemistry not given here) [15 bp Oligo25, 15 bp oligonucleotide with ratio of adenosine and guanosine 1:3]” was tested, and the NO production [1] was “NO production was reduced in proportion to the treatment concentration”, the “expression level of IL-1β gene” value [2] was “significantly reduced” and the “expression level of IL-6 gene” value [2] was “significantly reduced”. The “expression level of TNF-α gene” value [2] was “significantly reduced”, the “expression level of ADAMTS5 gene” value [3] was “increased” and the “expression level of MMP3 gene” value [3] was “reduced”. The “expression level of MMP9 gene” value [3] was “reduced”, the “expression level of MMP12 gene” value [3] was “reduced” and the “expression level of MMP13 gene” value [3] was “reduced”. The “expression level of IL-1β gene” value [4] was “significantly reduced”, the “expression level of IL-6 gene” value [4] was “significantly reduced” and the “expression level of TNF-α gene” value [4] was “significantly reduced”. The “expression level of anti-inflammatory cytokine IL-10 gene” value [4] was “significantly increased” and the NO production [5] was “NO production was reduced in proportion to the treatment concentration”.
